Earlier results, collected in US20220008485A1, “Wound Honey” (priority 2020, published 2022).
Where two headings read alike, the source gives them in different places.

Columns and labels:
Pseudomonas aeruginosa = details: for MBC acid: acid alone; for MBC combination Acid/H2O2: acid part: acid combined with H2O2, in Bovine albumin + yeast extract 1%; for MBC combination Acid/H2O2: H2O2 part: in Bovine albumin + yeast extract 1%
spores of B. cereus = details: 0.1% TC, HP at 600 MPA, 7° Celsius, infant formula
[1] = in combination with silver nanoparticles
[2] = acid combined with H2O2, in Bovine albumin + yeast extract 1%
[3] = H2O2 combined with Formic acid, in Bovine albumin + yeast extract 1%

SMILES: CC(=O)O [Acetic, acetic acid]
- MBC acid (Pseudomonas aeruginosa): 0.625%
- MBC combination Acid/H2O2: acid part (Pseudomonas aeruginosa): 0.625%

SMILES: O=CC=Cc1ccccc1 [Cinnamaldehyde, cinnamaldehyde]
- Minimal Inhibitory Concentration, Cinnamaldehyde (Bacillus cereus; alone): 0.328 mg/mL
- Minimal Inhibitory Concentration, Synergy Cinnamaldehyde (Bacillus cereus; [1]): 0.082 mg/mL
- Minimal Inhibitory Concentration, Cinnamaldehyde (Clostridium perfringens; alone): 0.065 mg/mL
- Minimal Inhibitory Concentration, Synergy Cinnamaldehyde (Clostridium perfringens; [1]): 0.016 mg/mL

SMILES: O=CO [Formic, formic acid]
- MBC acid (Listeria monocytogenes; acid alone): 1.56%
- MBC combination Acid/H2O2: acid part (Listeria monocytogenes; [2]): 0.625%
- MBC acid (Staphylococcus aureus; acid alone): 1.25%
- MBC combination Acid/H2O2: acid part (Staphylococcus aureus; [2]): 0.312%
- MBC acid (Pseudomonas aeruginosa): 0.025%
- MBC combination Acid/H2O2: acid part (Pseudomonas aeruginosa): 0.025%
- MBC acid (Enterococcus hirae; acid alone): 5%
- MBC combination Acid/H2O2: acid part (Enterococcus hirae; [2]): 0.625%

SMILES: CCC(=O)O [Propionic, propionic acid]
- MBC acid (Pseudomonas aeruginosa): 0.5%
- MBC combination Acid/H2O2: acid part (Pseudomonas aeruginosa): 0.50%

SMILES: O=C(O)CCC(=O)O [Succinic, succinic acid]
- MBC acid (Pseudomonas aeruginosa): 0.078%
- MBC combination Acid/H2O2: acid part (Pseudomonas aeruginosa): 0.078%

SMILES: O=C/C=C/c1ccccc1 [TC, trans-cinnamaldehyde]
- Mean logarithmic decrease in spores of B. cereus (spores of B. cereus; Week 1): 1.5
- Mean logarithmic decrease in spores of B. cereus (spores of B. cereus; Week 2): 2
- Mean logarithmic decrease in spores of B. cereus (spores of B. cereus; Week 3): 3
- Mean logarithmic decrease in spores of B. cereus (spores of B. cereus; Week 4): 2.25
- Mean logarithmic decrease in spores of B. cereus (spores of B. cereus; Week 5): 3
- Mean logarithmic decrease in spores of B. cereus (spores of B. cereus; Week 6): 1.5

SMILES: OO [hydrogen peroxide]
- MBC combination Acid/H2O2: H2O2 part (Listeria monocytogenes; H2O2 combined with Formic (printed Fonnic) acid, in Bovine albumin + yeast extract 1%): 0.78%
- MBC hydrogen peroxide (Listeria monocytogenes; hydrogen peroxide alone): 6.25%
- MBC combination Acid/H2O2: H2O2 part (Staphylococcus aureus; [3]): 1.56%
- MBC hydrogen peroxide (Staphylococcus aureus; hydrogen peroxide alone): 3.12%
- MBC combination Acid/H2O2: H2O2 part (Pseudomonas aeruginosa; H2O2 combined with Acetic acid): 0.39%
- MBC combination Acid/H2O2: H2O2 part (Pseudomonas aeruginosa; H2O2 combined with Formic acid): 0.39%
- MBC combination Acid/H2O2: H2O2 part (Pseudomonas aeruginosa; H2O2 combined with Propionic acid): 0.19%
- MBC combination Acid/H2O2: H2O2 part (Pseudomonas aeruginosa; H2O2 combined with Succinic acid): 0.78%
- MBC hydrogen peroxide (Pseudomonas aeruginosa; hydrogen peroxide alone): 1.56%
- MBC combination Acid/H2O2: H2O2 part (Enterococcus hirae; [3]): 3.12%
- MBC hydrogen peroxide (Enterococcus hirae; hydrogen peroxide alone): 12.5%
